Read-outs that look alike come from different tables or passages of the source. Positions of bridges follow the written chain, without caps; N, C: chain ends. No end group written: not given here.

One data set concerns Pseudotyped WIV1-CoV. The following applies: 48 h.
Another data set has as its system live HCoV-229E. The following applies: 8 h.
Another data set relates to SARS-CoV-2 PsV. The following applies: 48 h.
In a further data set the test system is SARS-CoV PsV. Conditions: rhesus monkey, in vivo.
In a further data set the test system is WIV1-CoV S protein. The data set is classed as cell-based. Conditions: read-out: IC50 against Cell-Cell Fusion Mediated by S Proteins of CoVs.
A further data set relates to live HCoV-OC43. Conditions: 8 h.
Another data set relates to Pseudotyped HCoV-229E. Conditions: 48 h.
For data set [1] the following is noted: in vivo; cited from earlier work.
The test system of data set [2] is Pseudotyped SARS-CoV-2. Conditions: 48 h.
Another data set relates to HCoV-OC43. The data set is classed as in vivo, ICR mice (newborn).
For the next data set, the target named is SARS-CoV-2 HR1P (Severe acute respiratory syndrome coronavirus 2, UniProt P0DTC2). The data set is classed as physicochemical. The following applies: pH 7.2.
The test system of the next data set is Pseudotyped HCoV-OC43. Conditions: 48 h.
Data set [3] relates to Pseudotyped HCoV-NL63. The following applies: 48 h.
In data set [4] the test system is Pseudotyped SARS-CoV. Conditions: 48 h.
Data set [5] relates to Pseudotyped MERS-CoV. Conditions: 48 h.
Data set [6] concerns Pseudotyped SARS-CoV-2. The following applies: 48 h. This is another data set of the same source.
A further data set addresses SARS-CoV S protein (Severe acute respiratory syndrome coronavirus, UniProt P59594). Briefly: cell-based.
The next data set has as its target HCoV-229E S protein (Human coronavirus 229E, UniProt P15423). The experiment in a line: cell-based.
The next data set has as its target MERS-CoV S protein (Middle East respiratory syndrome-related coronavirus, UniProt K9N5Q8). The experiment in a line: cell-based.
Data set [7] concerns Pseudotyped SARS-CoV. Conditions: 48 h. The source holds these as a separate data set.
The target in data set [8] is T1, SARS-CoV-2 S protein (Severe acute respiratory syndrome coronavirus 2, UniProt P0DTC2). Briefly: cell-based. The following applies: IC50 against Cell-Cell Fusion Mediated by S Proteins of CoVs.
Another data set deals with HCoV-OC43 S protein (Human coronavirus OC43, UniProt P36334). The experiment in a line: cell-based.
Another data set deals with HCoV-NL63 S protein (Human coronavirus NL63, UniProt Q6Q1S2). Briefly: cell-based.
Data set [9] relates to Pseudotyped MERS-CoV. Conditions: 48 h. This is another data set of the same source.
In data set [10] the test system is Pseudotyped HCoV-NL63. The following applies: 48 h. The source holds these as a separate data set.
Data set [11] deals with pseudotyped SARS-CoV-2 VOCs. The following applies: 48 h.
The test system of data set [12] is Caco-2, Calu-3, RD and Huh-7 cells. The following applies: 24 h.
The conditions of data set [13]: mouse, in vivo, 50 mg/kg.
A further data set in a line: in vitro. The following applies: human, Caco-2, Calu-3, RD and Huh-7 cells.
The conditions of data set [14]: rhesus monkey, in vivo, iv, 10 mg/kg.
In the next data set the target is proteinase K (Parengyodontium album, UniProt P06873).
Chain of proteinase K (P06873 106-384): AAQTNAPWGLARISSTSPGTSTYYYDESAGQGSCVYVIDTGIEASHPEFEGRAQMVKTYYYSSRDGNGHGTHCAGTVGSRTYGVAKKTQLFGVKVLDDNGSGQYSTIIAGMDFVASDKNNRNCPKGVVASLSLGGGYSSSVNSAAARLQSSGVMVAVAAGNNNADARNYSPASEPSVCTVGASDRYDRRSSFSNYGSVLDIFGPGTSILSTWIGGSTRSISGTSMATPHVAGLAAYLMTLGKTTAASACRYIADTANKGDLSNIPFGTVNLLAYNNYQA
The nature of the next data set: in vivo. The following applies: rhesus monkey, iv, 10 mg/kg.
Data set [15] has as its target T1, SARS-CoV-2 S protein. Briefly: cell-based.
Data set [16] deals with SARS-CoV-2 HR1 peptide (SARS-CoV-2).
The target in data set [17] is human immunoglobulin G (IgG) (human). The experiment in a line: BLI.

As to `CC[C@H](C)[C@H](NC(=O)[C@H](C)NC(=O)[C@H](CCC(=O)O)NC(=O)[C@H](CCC(=O)O)NC(=O)[C@H](CC(C)C)NC(=O)[C@H](CCCCN)NC(=O)[C@H](CCCCN)NC(=O)[C@H](CCSC)NC(=O)[C@H](CCC(=O)O)NC(=O)[C@H](Cc1ccc(O)cc1)NC(=O)[C@H](CCC(=O)O)NC(=O)[C@H](CC(C)C)NC(=O)[C@H](CC(=O)O)NC(=O)[C@H](CC(C)C)NC(=O)[C@H](Cc1ccccc1)NC(=O)[C@@H](NC(=O)[C@@H](NC(=O)[C@H](CC(N)=O)NC(=O)[C@@H](NC(=O)[C@H](CCC(N)=O)NC(=O)[C@H](CC(=O)O)NC(=O)[C@H](CC(C)C)NC(=O)[C@@H](N)CO)[C@@H](C)CC)C(C)C)[C@@H](C)O)C(=O)N[C@@H](CCCCN)C(=O)N[C@@H](CCCCN)C(=O)N[C@@H](CC(C)C)C(=O)N[C@@H](CCC(=O)O)C(=O)N[C@@H](CCC(=O)O)C(=O)N[C@@H](CO)C(=O)N[C@@H](Cc1ccc(O)cc1)C(=O)N[C@H](C(=O)N[C@@H](CC(=O)O)C(=O)N[C@@H](CC(C)C)C(=O)N[C@@H](CCCCN)C(=O)N[C@@H](CCC(=O)O)C(=O)N[C@@H](CC(C)C)C(=O)O)[C@@H](C)CC` [EK1], the concentration for half-maximal inhibition (IC50) was 6980 nM with Pseudotyped WIV1-CoV; 7590 nM with live HCoV-229E; 791 nM with SARS-CoV-2 PsV; 588 nM in the data set on WIV1-CoV S protein; 764 nM in the data set on live HCoV-OC43; 3480 nM with Pseudotyped HCoV-229E. For the same molecule, the figures for the half-inhibitory concentration (IC50) in the data set on Pseudotyped SARS-CoV-2 [2] and in the data set with Pseudotyped HCoV-OC43 were 253 nM and 3610 nM, respectively. In addition, the “ex vivo inhibition of SARS-CoV PsV by serum (fold of its IC50)” value with SARS-CoV PsV (iv, 10 mg/kg) was “below 450 fold”. Further, the t1/2 in the data set with SARS-CoV PsV (iv, 10 mg/kg) worked out at 1.77 h. In [1], the “t1/2 (reported value)” value is 1.8 h. In addition, the “protection (survival), prophylactic” value with HCoV-OC43 (3-day-old suckling mice, 10 mg/kg intranasal single dose 1 h before HCoV-OC43 (100 TCID50) challenge) was 100%. In addition, in the data set on HCoV-OC43 (day 5 post challenge, 10 mg/kg intranasal 1 h after challenge, vs viral control), the “viral loads in mouse brain, therapeutic group” value is recorded as “significantly different from those of viral control group”. Further, the “viral loads in mouse brain, prophylactic group” value with HCoV-OC43 (day 5 post challenge, 10 mg/kg intranasal 1 h before challenge, relative RNA quantification vs viral control) was “very low”. Also, the “Tm of complex with SARS-CoV-2 HR1P” value at SARS-CoV-2 HR1P was found to be 51.05 °C.

On to `CC(C)C[C@@H]1NC(=O)[C@H](Cc2c[nH]cn2)NC(=O)[C@H](Cc2c[nH]c3ccccc23)NC(=O)[C@H](C)NC(=O)[C@@H](NC(=O)[C@@H](N)CC(=O)O)CSSC[C@@H](C(=O)N[C@H](C(=O)O)[C@@H](C)O)NC(=O)[C@H](Cc2c[nH]c3ccccc23)NC(=O)[C@H](C(C)C)NC(=O)[C@H](CC(C)C)NC(=O)[C@H](CCC(=O)O)NC(=O)CNC1=O` [IBP], for which the IC50 is more than 50000 nM in the data set with Pseudotyped HCoV-NL63 [3]; more than 50000 nM with Pseudotyped WIV1-CoV; more than 50000 nM in the data set on live HCoV-229E; more than 100000 nM in the data set with SARS-CoV-2 PsV; more than 50000 nM in the data set with Pseudotyped SARS-CoV [4]; more than 50000 nM with Pseudotyped MERS-CoV [5]. For the same molecule, the half-inhibitory concentration (IC50) in the data set with live HCoV-OC43, with Pseudotyped HCoV-229E, in the data set on Pseudotyped SARS-CoV-2 [6], against SARS-CoV S protein, in the data set on Pseudotyped SARS-CoV-2 [2] and on HCoV-229E S protein was more than 50000 nM throughout. Moreover, the half-maximal inhibitory concentration (IC50) is more than 50000 nM on MERS-CoV S protein; more than 50000 nM with Pseudotyped SARS-CoV [7]; more than 100000 nM at SARS-CoV-2 S protein [8]; more than 50000 nM at HCoV-OC43 S protein; more than 50000 nM in the data set with Pseudotyped HCoV-OC43; more than 50000 nM on HCoV-NL63 S protein. The IC50 in the data set on Pseudotyped MERS-CoV [9] and in the data set on Pseudotyped HCoV-NL63 [10] was more than 50000 nM each time.

For “DCAWHLGELVWCTGGSSLDQINVTFLDLEYEMKKLEEAIKKLEESYIDLKEL (disulfide 2-12) [IBP-L-EK1]”, inhibition with SARS-CoV-2 PsV was half-maximal at 806 nM (IC50).

Take “DCAWHLGELVWCTSLDQINVTFLDLEYEMKKLEEAIKKLEESYIDLKEL (disulfide 2-12) [IBP-EK1]”: the half-inhibitory concentration (IC50) in data set [11] was 171 to 296 nM; in the data set on Pseudotyped WIV1-CoV, 6050 nM; with live HCoV-229E, 4140 nM; in the data set on SARS-CoV-2 PsV, 788 nM; in the data set with live HCoV-OC43 it was 744 nM; with Pseudotyped HCoV-229E, 3340 nM. The IC50 against SARS-CoV S protein came out at 229 nM; in the data set with Pseudotyped SARS-CoV-2 [2], 180 nM; against HCoV-229E S protein, 478 nM; on MERS-CoV S protein, 376 nM; at SARS-CoV-2 S protein [15], 325 nM; against SARS-CoV-2 S protein [8], 512 nM. In addition, the figures for the concentration for half-maximal inhibition (IC50) on HCoV-OC43 S protein, in the data set with Pseudotyped HCoV-OC43 and at HCoV-NL63 S protein were 829 nM, 3570 nM and 212 nM, respectively. In addition, in [12], the “selectivity index (SI = CC50/IC50)” value is given as “more than 100”. Besides, the “ALT level in sera” value in data set [13] is “in the normal range”. Further, the “IBP-EK1-specific antibodies in sera (immunogenicity)” value in data set [13] is “no IBP-EK1-specific antibodies were detected”. Besides, in data set [13], the body weight changes entry was “weight changes similar to those of the PBS-treated group”. Also, the “creatinine level in sera” value in data set [13] is on record as “in the normal range”. For the same molecule, the “histopathology of lungs, livers and kidneys (H&E)” value in [13] is given as “no pathological abnormalities in their organs”. Besides, the “residual inhibitory activity against SARS-CoV-2 PsV after trypsin treatment” value with trypsin is “significantly better inhibitory activities than those of EK1”. Further, the CC50 at 48 h in the data set “in vitro” was more than 100000 nM. Also, the “half-life relative to that of EK1” value in the data set on SARS-CoV PsV was “about 21 fold”. The AUC was 5228.98 µg·h/mL in the data set on SARS-CoV PsV (iv, 10 mg/kg) and 2207.03 µg·h/mL in data set [14]. The Cmax in the data set with SARS-CoV PsV (iv, 10 mg/kg) came out at 116.09 µg/mL; in “in vivo” it was 51.7 µg/mL. Further, the Tmax with SARS-CoV PsV (iv, 10 mg/kg) stood at 2 h; in the data set “in vivo”, 2 h. Moreover, the t1/2 in the data set on SARS-CoV PsV (iv, 10 mg/kg) is on record as 39.72 h. The “residual inhibitory activity against SARS-CoV-2 PsV after proteinase K treatment” value at proteinase K is recorded as “significantly better inhibitory activities than those of EK1”. In addition, the half-life in the data set “in vivo” is 37.7 h. The level at 24 h in “in vivo” was approximately 24 µg/mL.

Consider EK1 (peptide), for which, in data set [16], the IC50 against pseudotyped SARS-CoV-2 infection of Caco-2 cells is 590 nM and the IC50 against pseudotyped SARS-CoV-2 infection of Calu-3 cells was 253 nM.

On to IBP-EK1 (peptide), for which, in data set [16], the IC50 against pseudotyped SARS-CoV-2 infection of Caco-2 cells is 512 nM and the IC50 against pseudotyped SARS-CoV-2 infection of Calu-3 cells turned out to be 180 nM. The Kd in data set [17] worked out at 217 nM.

Turning to “SLDQINVTFLDLEYEMKKLEEAIKKLEESYIDLKELDCAWHLGELVWCT (disulfide 38-48) [EK1-IBP]”, in the data set with SARS-CoV-2 PsV, the midpoint of inhibition, the IC50, lay at 1180 nM.

In the data set on SARS-CoV-2 PsV, “SLDQINVTFLDLEYEMKKLEEAIKKLEESYIDLKELGGSDCAWHLGELVWCT (disulfide 41-51) [EK1-L-IBP]” yielded a half-inhibitory concentration (IC50) of 1170 nM.

In data set [17], “human immunoglobulin G Fc-binding peptide (IBP)” came in with a Kd of 1030 nM.

The record behind these values is PMC10526447 (Biomolecules, 2023).
